Measured values taken from patent publication US11497713B2, “Combination taxoid nanoemulsion with immunotherapy in cancer” (TargaGenix, Inc., priority 2017, dated 2022).

Columns and labels:
PDAC = settings: cited from earlier work
[1] = test system: highly drug resistant tumor xenografts; assay: Highly drug resistant tumor xenografts in mice; settings: mouse, in vivo
[2] = test system: human CFPAC-1 pancreatic tumor xenograft; assay: Human CFPAC-1 pancreatic tumor xenograft efficacy (FIG. 2); assay type: in vivo, mice; settings: for efficacy as compared to vehicles: CFPAC-1 xenograft
[3] = test system: human PANC-1 pancreatic tumor xenograft; assay: Human PANC-1 pancreatic tumor xenograft, schedule comparison (FIG. 3); assay type: in vivo, RPCI SCID mice
From the text: In FIG. 3, this experiment compared a q7d×3 with a q3d×3 schedule for paclitaxel and DHA-SBT-1214 using a human PANC-1 pancreatic tumor xenograft in RPCI SCID mice. […] Paclitaxel was only weakly effective, showing tumor growth delays of 18 days with q7d×3 schedule and 13 days with q3d×3 schedule and no CRs.

Panc02 cells = assay: Cell viability (MTT assay) in Panc02 cells; assay type: cell-based, murine; settings: Mus musculus, 96 hours of drug exposure
Protocol: The murine pancreatic cancer cell line Panc02, which is syngeneic to C57Bl/6 mice was a kind gift from Professor Michael A. Hollingsworth, UNMC, Omaha, Nebr. Panc02 cells were grown in 75 cm^2 cell culture flasks and maintained in DMEM medium supplemented with 10% fetal bovine serum (FBS), L-glutamine and penicillin (100 U/ml)/streptomycin (100 μg/ml) (both from Gibco Life Technologies, Carlsbad, Calif., USA). Cells were incubated at 37° C. in a humidified atmosphere containing 5% CO2.
To see cytotoxic effect of different drugs and nanoemulsion formulation, 5000 cells were seeded in each well of the 96-well plate for overnight at 37° C. in a humidified atmosphere containing 5% CO2. Various drugs (Paclitaxel, Abraxane, Gemcitabine and solution and nanoemulsion of DHA-SBT-1214) were diluted at concentrations ranging from 0 nM, 0.01 nM, 0.1 nM, 1 nM, 10 nM, 100 nM, 1000 nM to 10000 nM and Panc02 cells treated with these concentrations for 96 hours. After incubation, cells were treated with 3-(4,5-dimethylthiazol-2-yl)-2,5-diphenyltetrazolium bromide ([…]). MU crystals were dissolved with DMSO and plates were read at 570 nm absorbance using a BioTek Synergy HTX Multi-Mode Microplate Reader.
Cells were seeded at 0.5×10^6 cells/well in 6-well plates for overnight at 37 C in a humidified atmosphere containing 5% CO2. […] The percentage maximal response is shown as a function of anti-cancer agents when administered to Panc02 cells. The cell viability was measured by the MTT assay after 96 hours of incubation at 37° C. Data represent mean±standard deviation (n=3). Significant differences are indicated as follows: *p<0.05, and **p<0.01. The expression level of PD-L1 was determined using flow cytometry as follows. […] The cells were washed once with 3% BSA/PBS and analyzed by flow cytometer on a FACSCalibur flow cytometer and CellQuest™ Pro version 6.0 software (both from Becton-Dickinson and Co.). […]

[4] = test system: PD-L1 surface expression in Panc02 cells; assay: PD-L1 surface protein expression by flow cytometry; assay type: cell-based, murine; settings: IC50 concentration, 48 hours
Protocol: Cells were seeded at 0.5×10^6 cells/well in 6-well plates for overnight at 37 C in a humidified atmosphere containing 5% CO2. […] The percentage maximal response is shown as a function of anti-cancer agents when administered to Panc02 cells. The cell viability was measured by the MTT assay after 96 hours of incubation at 37° C. Data represent mean±standard deviation (n=3). Significant differences are indicated as follows: *p<0.05, and **p<0.01. The expression level of PD-L1 was determined using flow cytometry as follows. Briefly, cells harvested from in vitro cultures were washed twice with 3% BSA/PBS and then incubated with rat anti-PD-L1 or isotype control antibodies ([…], BioXcell, West Lebanon, N.H., USA) for 30 minutes at 4 C, then washed three times and incubated with anti-rat AlexaFluor 488 conjugated Antibody. The cells were washed once with 3% BSA/PBS and analyzed by flow cytometer on a FACSCalibur flow cytometer and CellQuest™ Pro version 6.0 software (both from Becton-Dickinson and Co.).
Panc02 cells were treated with gemcitabine, Abraxane™, paclitaxel and DHA-SBT-1214 both in solution and nanoemulsion for 48 hours to determine whether they can induce PD-L1 protein expression. PD-L1 expression levels on tumor cells were determined by flow cytometry and is expressed as the A mean fluorescence intensity (ΔMFI; MFI using anti-PD-L1 subtracted from the isotype control). […] PD-L1 expression was analyzed using flow cytometry and is presented as ΔMFI (MFI using anti-PD-L1 subtracted from the isotype control). Data represent the mean±standard deviation of at least 3 independent experiments; *p<0.05, **p<0.01, ***p<0.001. As reported previously, PD-L1 level enhanced in pancreatic tumor tissues compared to in vitro growing cells as shown in FIG. 8.

[5] = test system: patient-derived PPT2 prostate cancer stem cell xenograft; assay: Patient-derived prostate cancer stem cell (PPT2) xenograft model; assay type: in vivo, mice; settings: patient-derived prostate CSC xenograft

## O=c1[nH]cc(F)c(=O)[nH]1 [5-FU, 5-flurouracil]
PDAC; randomized Phase III trial, gemcitabine versus 5-FU
  median overall survival: 4.41 months

## CC/C=C\C/C=C\C/C=C\C/C=C\C/C=C\C/C=C/CCC(=O)O[C@@H](C(=O)O[C@H]1C[C@@]2(O)[C@@H](OC(=O)c3ccccc3)C3[C@](C)(C(=O)[C@H](OC(C)=O)C(=C1C)C2(C)C)[C@@H](O)C[C@H]1OC[C@@]31OC(C)=O)[C@@H](NC(=O)c1ccccc1)c1ccccc1 (stereo partly shown) [DHA-paclitaxel]
[1]
  efficacy: do not show meaningful activity
[2]
  efficacy as compared to vehicles: only minor tumor growth delay

## CC(=O)O[C@@]12CO[C@@H]1C[C@H](O)[C@@]1(C)C(=O)[C@H](OC(=O)C3CC3)C3=C(C)[C@@H](OC(=O)[C@H](O)[C@H](C=C(C)C)NC(=O)OC(C)(C)C)C[C@@](O)([C@@H](OC(=O)c4ccccc4)[C@H]21)C3(C)C [SBT-1214]
[2]; 120 mg/kg total dose, until day 20
  weight loss: < 4%

## CC(=O)O[C@H]1C(=O)[C@@]2(C)[C@H]([C@H](OC(=O)c3ccccc3)[C@]3(O)C[C@H](OC(=O)[C@H](O)[C@@H](NC(=O)c4ccccc4)c4ccccc4)C(C)=C1C3(C)C)[C@]1(OC(C)=O)CO[C@@H]1C[C@@H]2O [paclitaxel, reference compound]
[3]; PANC-1 xenograft
  complete responses (CRs): no CRs
[3]; q3d×3 schedule
  tumor growth delay: 13 days
[3]; q7d×3 schedule
  tumor growth delay: 18 days
[1]
  efficacy: do not show meaningful activity
Panc02 cells
  IC50: 443 nM
[4]
  PD-L1 surface expression (ΔMFI): upregulated
[5]
  efficacy (tumor growth, survival): completely ineffective
[2]
  efficacy as compared to vehicles: only minor tumor growth delay

## FOLFIRINOX
PDAC; Phase III clinical trial of FOLFIRINOX
  median survival: 11.1 months
